Source: ChEMBL document CHEMBL2331162, “Biophysical fragment screening of the β1-adrenergic receptor: identification of high affinity arylpiperazine leads using structure-based drug design” (J Med Chem, 2013)
pKi: −log10 of the molar value. Activity calls are given as the source filed them. No cut-off for these calls is given here.

Assays:
[1] = target: Beta-1 adrenergic receptor (Homo sapiens, UniProt P08588); assay: Displacement of [3H]dihydroalprenolol from human wild type beta1 adrenergic receptor expressed in HEK293 cell membranes after 90 mins by liquid scintillation counting analysis
Beta-1 adrenergic receptor, sequence (P08588 whole entry): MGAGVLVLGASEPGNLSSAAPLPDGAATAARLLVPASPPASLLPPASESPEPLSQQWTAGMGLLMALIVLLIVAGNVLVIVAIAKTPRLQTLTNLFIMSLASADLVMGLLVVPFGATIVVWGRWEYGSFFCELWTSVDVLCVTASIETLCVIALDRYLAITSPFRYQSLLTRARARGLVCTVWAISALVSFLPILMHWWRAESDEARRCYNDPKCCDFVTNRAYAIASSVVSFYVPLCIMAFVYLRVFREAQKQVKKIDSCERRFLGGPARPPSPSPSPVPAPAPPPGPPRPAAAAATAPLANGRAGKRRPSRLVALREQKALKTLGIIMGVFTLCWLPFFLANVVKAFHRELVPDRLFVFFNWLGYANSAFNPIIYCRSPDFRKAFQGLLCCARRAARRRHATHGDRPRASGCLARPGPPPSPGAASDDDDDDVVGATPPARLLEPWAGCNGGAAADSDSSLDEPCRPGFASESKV

[2] = target: T1, Muscarinic acetylcholine receptor M4 (Homo sapiens) (UniProt P08173); assay: Agonist activity at human muscarinic M4 receptor expressed in CHO cells assessed as stimulation of ERK1/2 phosphorylation after 15 mins by Alphascreen Surefire assay; type: cell-based
T1 sequence (whole entry): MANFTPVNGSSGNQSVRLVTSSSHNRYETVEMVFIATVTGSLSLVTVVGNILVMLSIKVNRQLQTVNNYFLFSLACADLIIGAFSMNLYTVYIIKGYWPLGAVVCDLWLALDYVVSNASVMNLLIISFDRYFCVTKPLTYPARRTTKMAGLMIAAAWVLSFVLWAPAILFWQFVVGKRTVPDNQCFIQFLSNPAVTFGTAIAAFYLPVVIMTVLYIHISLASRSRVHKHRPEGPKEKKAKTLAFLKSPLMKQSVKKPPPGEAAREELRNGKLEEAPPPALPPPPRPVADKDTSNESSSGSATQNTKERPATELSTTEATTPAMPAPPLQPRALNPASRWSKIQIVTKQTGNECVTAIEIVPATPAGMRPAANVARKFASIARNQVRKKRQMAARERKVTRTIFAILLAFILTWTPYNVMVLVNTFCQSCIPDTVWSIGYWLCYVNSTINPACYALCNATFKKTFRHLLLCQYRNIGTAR

[3] = target: T2, Muscarinic acetylcholine receptor M3 (Homo sapiens, UniProt P20309); assay: Agonist activity at human muscarinic M3 receptor expressed in CHO cells assessed as stimulation of ERK1/2 phosphorylation after 15 mins by Alphascreen Surefire assay; type: cell-based
Target sequence in this assay (P20309 whole entry, looked up): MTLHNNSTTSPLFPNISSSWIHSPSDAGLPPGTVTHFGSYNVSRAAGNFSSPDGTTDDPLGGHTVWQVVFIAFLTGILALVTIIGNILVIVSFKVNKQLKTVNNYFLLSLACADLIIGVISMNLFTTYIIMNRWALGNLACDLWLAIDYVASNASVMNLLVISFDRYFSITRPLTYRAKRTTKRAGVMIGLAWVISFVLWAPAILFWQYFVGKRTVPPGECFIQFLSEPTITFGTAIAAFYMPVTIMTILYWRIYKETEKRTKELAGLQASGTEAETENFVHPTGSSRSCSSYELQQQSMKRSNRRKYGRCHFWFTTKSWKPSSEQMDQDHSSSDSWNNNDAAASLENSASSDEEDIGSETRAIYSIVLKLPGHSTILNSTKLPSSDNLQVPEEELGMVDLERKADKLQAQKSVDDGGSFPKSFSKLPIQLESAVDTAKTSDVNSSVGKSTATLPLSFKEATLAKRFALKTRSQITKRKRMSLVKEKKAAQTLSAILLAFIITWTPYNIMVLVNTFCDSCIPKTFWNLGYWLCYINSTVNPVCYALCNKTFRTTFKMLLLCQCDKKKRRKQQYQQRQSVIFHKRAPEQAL

[4] = target: T3, Muscarinic acetylcholine receptor M2 (Homo sapiens, UniProt P08172); assay: Displacement of [3H]-NMS from recombinant muscarinic M2 receptor (unknown origin) expressed in CHOK1 cells after 60 mins by liquid scintillation counting analysis; type: cell-based, CHO-K1
T3 sequence (P08172 whole entry): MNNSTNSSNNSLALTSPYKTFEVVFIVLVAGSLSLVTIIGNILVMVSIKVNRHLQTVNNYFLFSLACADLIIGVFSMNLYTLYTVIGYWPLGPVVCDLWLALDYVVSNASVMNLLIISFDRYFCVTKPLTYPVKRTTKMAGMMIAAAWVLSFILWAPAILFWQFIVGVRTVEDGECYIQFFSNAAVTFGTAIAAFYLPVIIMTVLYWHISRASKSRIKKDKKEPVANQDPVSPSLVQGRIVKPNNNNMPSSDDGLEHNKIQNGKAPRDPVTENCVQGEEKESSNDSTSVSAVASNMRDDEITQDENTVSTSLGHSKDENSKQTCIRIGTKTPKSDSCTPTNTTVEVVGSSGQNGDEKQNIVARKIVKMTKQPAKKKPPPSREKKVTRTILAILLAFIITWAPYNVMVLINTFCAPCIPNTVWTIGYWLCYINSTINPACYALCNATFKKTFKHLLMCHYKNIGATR

[5] = target: T4, Muscarinic acetylcholine receptor M2 (Homo sapiens) (UniProt P08172); assay: Agonist activity at human muscarinic M2 receptor expressed in CHO cells assessed as stimulation of ERK1/2 phosphorylation after 15 mins by Alphascreen Surefire assay; type: cell-based
T4 sequence (whole entry): T3 sequence (P08172 whole entry)

[6] = target: T5, Muscarinic acetylcholine receptor M1 (Homo sapiens) (UniProt P11229); assay: Agonist activity at human muscarinic M1 receptor expressed in CHO cells assessed as stimulation of ERK1/2 phosphorylation after 15 mins by Alphascreen Surefire assay; type: cell-based
T5 sequence (whole entry): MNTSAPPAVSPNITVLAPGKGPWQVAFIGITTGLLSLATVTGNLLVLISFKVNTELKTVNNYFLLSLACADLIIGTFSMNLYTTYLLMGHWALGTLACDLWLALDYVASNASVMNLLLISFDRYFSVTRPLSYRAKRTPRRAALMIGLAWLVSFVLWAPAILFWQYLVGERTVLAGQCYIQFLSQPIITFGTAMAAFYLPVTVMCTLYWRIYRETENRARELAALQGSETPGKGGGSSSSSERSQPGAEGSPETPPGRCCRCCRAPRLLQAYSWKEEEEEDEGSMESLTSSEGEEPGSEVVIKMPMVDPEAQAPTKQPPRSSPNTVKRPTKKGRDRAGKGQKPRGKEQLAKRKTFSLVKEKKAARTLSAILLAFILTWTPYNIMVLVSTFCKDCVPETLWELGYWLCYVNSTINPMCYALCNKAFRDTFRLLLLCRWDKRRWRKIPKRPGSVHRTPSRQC

[7] = target: T2, Muscarinic acetylcholine receptor M3; assay: Displacement of [3H]-NMS from recombinant muscarinic M3 receptor (unknown origin) expressed in CHOK1 cells after 60 mins by liquid scintillation counting analysis; type: cell-based, CHO-K1
Target sequence in this assay (P20309 whole entry): as the sequence (P20309 whole entry, looked up) above

[8] = target: T6, Muscarinic acetylcholine receptor M4 (Homo sapiens, UniProt P08173); assay: Displacement of [3H]-NMS from recombinant muscarinic M4 receptor (unknown origin) expressed in CHOK1 cells after 60 mins by liquid scintillation counting analysis; type: cell-based, CHO-K1
T6 sequence (P08173 whole entry): T1 sequence (whole entry)

FC(F)(F)c1ccnc(N2CCNCC2)n1
pKi [1]: 5.60

c1cc(N2CCNCC2)c2cc[nH]c2c1
pKi [1]: 7.17
Activity [2]: inactive
Activity [3]: inactive
pKi [4]: < 4.70
Activity [5]: inactive
Activity [6]: inactive

Clc1cccc(N2CCNCC2)c1Cl
pKi [1]: 6.97
Activity [2]: inactive
Activity [3]: inactive
pKi [4]: < 4.70
Activity [5]: inactive
Activity [6]: inactive

Cc1cc(N2CCNCC2)nc2ccccc12
pKi [1]: 6.65
Activity [2]: inactive
Activity [3]: inactive
pKi [4]: < 4.70
Activity [5]: inactive
Activity [6]: inactive

FC(F)(F)c1ccnc(N2CCNCC2)c1
pKi [1]: 5.63

Clc1ccc(N2CCNCC2)cc1Cl
pKi [1]: 6.67

Clc1cc(Cl)cc(N2CCNCC2)c1
pKi [1]: 7.07
Activity [2]: inactive
Activity [3]: inactive
Activity [5]: inactive
pKi [7]: 5.10
Activity [6]: inactive
pKi [8]: 4.50

FC(F)(F)c1cc(N2CCNCC2)cc(C(F)(F)F)c1
pKi [1]: 5.90

CSc1nc(N2CCNCC2)c2sc3c(c2n1)CCCC3
pKi [1]: 6.70

Cc1ccc(N2CCNCC2)cc1C
pKi [1]: 6.13

Cc1cccc(N2CCNCC2)c1C
pKi [1]: 6.27

c1csc(-c2cccc3ccc(N4CCNCC4)nc23)c1
pKi [1]: 6.60

Cc1cc(N2CCNCC2)c2ccccc2n1
pKi [1]: 5.80

COc1cc(OC)cc(N2CCNCC2)c1
pKi [1]: 5.80

Cc1nc(N2CCNCC2)c2c3c(sc2n1)CC(C)CC3 (stereo unspecified)
pKi [1]: 6.17
